How the values were obtained:
[1] = Fluorescence titration of lucigenin dye with calixarene host (1:1 binding model); conditions: association constant, 1:1 host:guest model, 5 mM phosphate buffer pH 7.3, mean ± SD of triplicate
Source text: (§1) The binding affinity of the anionic calixarene activators toward cationic peptides was investigated using a small library of highly hydrophilic oligoarginines, from 3 to 8 residues. These peptides are not able to spontaneously transverse zwitterionic artificial membranes in vesicle assays, which allows the accurate evaluation of the calixarenes 1 and 2 as counterion activators without interferences from the transport of the peptide alone.[43]−[45] First, the formation of host–guest complexes between 1/2 and the selected peptides was verified by indicator displacement assays using lucigenin (LCG) as the fluorescent indicator.[46] As previously reported for other sulfonatocalixarene derivatives,[46] the formation of host–guest binding pairs between calixarenes 1/2 in the E- and Z-forms and LCG results in significant static fluorescence quenching (see Figure 2A and Figures S26 and S27). Quantitative analysis of the fluorescence titration data using a 1:1 host:guest binding model allows the determination of the respective binding constants (K) reported in Table 1. As can be observed, both 1/2 display high affinity for the LCG dye, on the 10^7 M^–1 range, which seems to be independent of the nature and conformation of the azobenzene arm. […] The host:LCG binding pairs were then employed in the above-mentioned indicator displacement assays to investigate the binding affinity of oligoarginines toward 1 and 2 (see Figure 2B and Figures S29–S33).
Figure 2 (A) Fluorescence titration of the lucigenin dye (LCG, 1.5 μM) with increasing concentrations of E-2 in water (5 mM phosphate buffer, pH 7.3). (B) Indicator displacement titration of hexaarginine (R6) using E-2:LCG as the reporter pair (5 mM phosphate buffer, pH 7.3). LCG and E-2 concentrations were fixed at 4 and 4.3 μM, respectively. […]
The binding affinities of the counterion activators and peptide complexes were analyzed by indicator displacement assays. […] Firstly, the affinity for LCG was calculated for each of the activators, by titrations followed by fluorescence spectroscopy leading to almost full quenching of the emission. […]
Figure S26 - Fluorescence titration of the lucigenin dye with increasing concentrations of A) E-1 and B) Z–1 in water (5 mM phosphate buffer pH 7.3). […]
Figure S27 - Fluorescence titrations of the lucigenin dye (LCG, 0.2 µM, except for the first E-2 titration were [LCG] = 1.5 µM ) with increasing concentrations of (A) E-2 and (B) Z-2 in water (5 mM phosphate buffer pH 7.3). […]
Figure S28 - Fluorescence titrations of the lucigenin dye (LCG, 0.2 µM) with increasing concentrations of SC4 in water (5 mM phosphate buffer pH 7.3). […]

R3 = assay: Indicator displacement assay with host:LCG reporter pair, guest R3; type: binding; conditions: association constant, competitive dye displacement with LCG, 5 mM phosphate buffer pH 7.3, mean ± SD of triplicate
Source text: as §1
(§2) The binding affinities of the counterion activators and peptide complexes were analyzed by indicator displacement assays. The fluorescent dye chosen for these experiments was lucigenin (LCG) due to its complex with the receptor SC4 being well characterized and due to the high variation of emission between its bound and free form. Firstly, the affinity for LCG was calculated for each of the activators, by titrations followed by fluorescence spectroscopy leading to almost full quenching of the emission. For the competitive assays, a concentration of LCG and activator was chosen in order to have approximately 90% of complexed dye and that mixture was then titrated with each of the peptides, leading to the regaining of emission when LCG was release from the complex.
(§3) Figure S26 - Fluorescence titration of the lucigenin dye with increasing concentrations of A) E-1 and B) Z–1 in water (5 mM phosphate buffer pH 7.3). LCG concentration was fixed 0.2 µM in all experiments, except for the first E-1 titrations were [LCG]
(§4) (1 picture or pasted object on this page, not shown here)
(§5) Figure S29 - Indicator displacement titration of the several oligoarginines A) R3 B) R4 C) R6 and D) R8, using SC4:LCG as the reporter pair (5 mM phosphate buffer pH 7.3). LCG and SC4 concentrations were fixed at A) 0.22 and 0.50 µM, for all three replicates, B) 0.22 and 4.7 µM for the first titration and 0.22 and 4.3 µM for the remaining two replicates, C) 0.22 and 0.45 µM and 1.1 and 0.85 µM and D) 0.28 and 0.43 µM and 1.1 and 0.85 µM, respectively, from left to right.
(§6) Figure S30 - Indicator displacement titration of the several oligoarginines A) R3 B) R4 C) R6 and D) R8, using E-1:LCG as the reporter pair (5 mM phosphate buffer pH 7.3) LCG and E-1 concentrations were fixed at A) 0.11 and 0.25 µM, for all three replicates, B) 0.22 and 0.5 µM, for the first two titrations and 0.22 and 0.23 µM for the remaining replicate, C) 4.0 and 3.8 µM and 0.22 and 0.5 µM, D) 4 and 3 µM and 0.22 and 0.5 µM, respectively, from left to right. […]

R4 = assay: Indicator displacement assay with host:LCG reporter pair, guest R4; type: binding; conditions: association constant, competitive dye displacement with LCG, 5 mM phosphate buffer pH 7.3, mean ± SD of triplicate
Source text: as §1, §2, §3, §4, §5, §6

[2] = Photochemical characterisation (UV–vis absorption, 1H NMR) and thermal Z→E isomerization; type: physicochemical; conditions: for Fraction of E isomer in the photostationary state (PSS): irradiation of the Z-forms at 500 nm; for Thermal stability of the Z isomer: room temperature, time frame of the experiments
Source text: The photochromic properties of 1 and 2 were investigated in diluted aqueous solution by UV–vis absorption spectroscopy and in CD3OD by ^1H NMR.
On the other hand, irradiation of the Z-forms at λirr = 500 nm originates a photostationary state (PSS) composed of 70 and 80% of E-1 (Φ1Z → E = 0.6) and E-2 (Φ2Z → E = 0.5), respectively (Figure 1 and Figure S23). As generally observed for other azobenzene photoswitches,[42] the E isomers can be quantitatively recovered in the dark through the thermal Z → E isomerization, with 1 and 2 presenting activation energies of 215 and 93 kJ/mol, respectively (Figures S24 and S25).

Row | Compound | Apparent affinity constant K for LCG [1] | Apparent affinity constant K for R3 (R3) | Apparent affinity constant K for R4 (R4) | Fraction of E isomer in the photostationary state (PSS) [2] | Thermal stability of the Z isomer [2]
1 | O=S(=O)([O-])c1cc2c(O)c(c1)Cc1cc(S(=O)(=O)[O-])cc(c1O)Cc1cc(S(=O)(=O)[O-])cc(c1OCCCCCCOc1ccc(/N=N/c3ccccc3)cc1)Cc1cc(S(=O)(=O)[O-])cc(c1O)C2.[Li+].[Li+].[Li+].[Li+] [E-1] | (2.5 ± 0.7) × 10^7 M^–1 | (2.6 ± 0.8) × 10^6 M^–1 | (3.9 ± 0.3) × 10^7 M^–1 | 70% | 
2 | CCCCc1ccc(/N=N/c2ccc(OCCCOc3c4cc(S(=O)(=O)[O-])cc3Cc3cc(S(=O)(=O)[O-])cc(c3O)Cc3cc(S(=O)(=O)[O-])cc(c3O)Cc3cc(S(=O)(=O)[O-])cc(c3O)C4)cc2)cc1.[Li+].[Li+].[Li+].[Li+] [E-2] | (2.6 ± 0.7) × 10^7 M^–1 | (4.1 ± 0.2) × 10^6 M^–1 | (1.2 ± 0.6) × 10^8 M^–1 | 80% | 
3 | O=S(=O)([O-])c1cc2c(O)c(c1)Cc1cc(S(=O)(=O)[O-])cc(c1O)Cc1cc(S(=O)(=O)[O-])cc(c1OCCCCCCOc1ccc(/N=N\c3ccccc3)cc1)Cc1cc(S(=O)(=O)[O-])cc(c1O)C2.[Li+].[Li+].[Li+].[Li+] [Z-1] | (2.3 ± 0.4) × 10^7 M^–1 | (2.4 ± 0.6) × 10^6 M^–1 | (3.2 ± 0.7) × 10^7 M^–1 |  | minimal thermal interconversion at room temperature
4 | CCCCc1ccc(/N=N\c2ccc(OCCCOc3c4cc(S(=O)(=O)[O-])cc3Cc3cc(S(=O)(=O)[O-])cc(c3O)Cc3cc(S(=O)(=O)[O-])cc(c3O)Cc3cc(S(=O)(=O)[O-])cc(c3O)C4)cc2)cc1.[Li+].[Li+].[Li+].[Li+] [Z-2] | (3.4 ± 0.8) × 10^7 M^–1 | (3.6 ± 0.3) × 10^6 M^–1 | (7.8 ± 1.3) × 10^7 M^–1 |  | minimal thermal interconversion at room temperature
